# Columns and labels:
# human CYP17 = target: T1, human CYP17 (Homo sapiens, UniProt P05093); assay: CYP17 inhibition assay in yeast microsomes overexpressing human CYP17; format: biochemical; settings: yeast microsomes expressing human CYP17
# T1 construct: purchased Premas Biotech, India; host or cells: yeast (microsomes)
# T1 sequence (P05093 1-508): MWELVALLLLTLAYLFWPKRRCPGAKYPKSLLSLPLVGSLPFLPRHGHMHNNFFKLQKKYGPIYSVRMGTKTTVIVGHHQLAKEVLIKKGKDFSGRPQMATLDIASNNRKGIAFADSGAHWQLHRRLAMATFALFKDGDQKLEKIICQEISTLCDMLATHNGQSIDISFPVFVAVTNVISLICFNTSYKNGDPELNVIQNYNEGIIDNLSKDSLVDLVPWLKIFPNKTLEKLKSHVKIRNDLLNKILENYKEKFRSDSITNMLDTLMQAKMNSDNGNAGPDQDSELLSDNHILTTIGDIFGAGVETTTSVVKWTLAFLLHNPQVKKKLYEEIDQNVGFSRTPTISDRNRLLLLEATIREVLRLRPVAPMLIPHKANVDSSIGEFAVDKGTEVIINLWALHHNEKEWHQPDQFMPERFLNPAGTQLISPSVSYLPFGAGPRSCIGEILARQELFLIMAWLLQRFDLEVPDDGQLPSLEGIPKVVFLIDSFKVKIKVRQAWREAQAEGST
# Procedure: CYP17 Inhibition Assay in Rat Testicular Microsomes (Rat CYP17) or Yeast Microsome Overexpressing Human CYP17
# 1. NADPH (Sigma): A working stock was prepared by adding 25 μL of 6.5 mM NADPH in each tube. The final concentration of NADPH used in the assay was 325 μM.
# 2. Potassium Phosphate Buffer: One molar (1M) solutions of K2HPO4 and KH2PO4 were prepared. Eight mL of the 1 M KH2PO4 and 1.98 mL of the 1 M K2HPO4 were combined and the pH was adjusted to 7.4.
# 3. ^3H3-17α-hydroxypregnenolone (American Radiolabeled Chemicals, Inc., stock 1 μCi/μL): A 1:1 dilution of ^3H3-17α-hydroxypregnenolone in ethanol was prepared by combining 100 μL ^3H3-17α-hydroxypregnenolone+100 μL ethanol for one complete 96 well plate. For the reaction, 2 μL of the diluted ^3H3-17α-hydroxypregnenolone was added in each tube, i.e., 1 μCi/reaction. 4. Microsome Isolation Buffer: The microsome isolation buffer was prepared by combining 250 mM Sucrose, 5 mM EDTA, 10 mM Tris HCl, 4 mM DTT, and adjusting to pH 7.4. 5. TEG Buffer: The TEG buffer was prepared by combining 50 mM Tris HCl, 1 mM EDTA, and 20% Glycerol. 6. Rat Testicular Microsomes: Rat testis tissue was collected and disrupted with 30 strokes of a glass homogenizer on ice with 250 μL of microsome isolation buffer, followed by centrifugation at 10,000 g for 10 minutes at 4° C. The supernatant was collected and centrifuged at 100,000 g for 45 minutes at 4° C. The pellet was dissolved in TEG Buffer and the protein was quantified. The homogenized microsome samples were then frozen at −80° C. • 7. Yeast Microsomes which overexpress the human CYP17 enzyme were obtained from Premas Biotech, India.
# Potassium phosphate buffer (470 μL) was prepared as described above and was added to each well of a deep well plate. The test compound was diluted using a TECAN liquid handler and 5 μL of diluted compound was transferred to each well (96 deep well/1 mL). A solution (25 μL) of 6.5 mM NADPH was added (final concentration of 325 μM in the assay). ^3H3-17α-hydroxypregnenolone (2 μL of the working stock) was added to each tube. The plates were then pre-incubated for 15 minutes at 37° C. Following the pre-incubation, either 5 μL rat testicular microsomes (150-160 μg) or 5 μL of yeast microsomes expressing human CYP17 (1.7 pmol), was added. Incubation was at 37° C. for 60 minutes in the presence of oxygen. The plates were then placed in ice and chloroform (500 μL) was added, mixed well and incubated at 4° C. for 20 minutes. The plates were then centrifuged at 1000 rpm for 15 minutes at 4° C.
# A portion (300 μL) of the aqueous solution was collected and mixed with a 5% aqueous suspension of activated charcoal (300 μL). The plates were then incubated at 4° C. for 30 minutes, after which the plates were centrifuged at 1000 rpm for 15 minutes at 4° C. From this, 125 μL of the aqueous solution was collected and plated into a 96 well plate. Microscint™ 40 [125 μL, Perkin-Elmer; containing a mixture of a polymer based on alkylphenolethoxylate (20-40%), diethanolamine-phosphoric acid ester ammonium salt (10-20%), sodium dioctyl sulphosuccinate (2.5-10%), triethyl phosphate (2.5-10%), 3,6-dimethyl-4-octyne-3,6-diol (≦2.5%), a polymer based on nonylphenolethoxylate (≦2.5%), diisopropyl naphthalene isomers (40-60%), 2,5-diphenyloxazole (≦2.5%), and 9,10-dimethylanthracene] was added and mixed well. After 30 minutes of incubation, the samples were analyzed with a MicroBeta® Trilux microplate liquid scintillation counter and luminometer (Perkin-Elmer).
# [1] = tested on: prostate and seminal vesicle weights; assay: In vivo reduction of prostate and seminal vesicle weights; set-up: species or system rat; settings: male rats
# Procedure: In vivo Reduction of Prostate and Seminal Vesicle Weights Male rats aged 8 to 10 weeks old (5 animals per group) were dosed orally with compounds once or twice a day at 12-hour intervals for 14 days. On day 14 the animals were euthanized and organs were surgically removed for wet weight determination including the prostate, seminal vesicles and testes.
# serum testosterone level = assay: In vivo inhibition of testosterone production; set-up: species or system rat; settings: male rats, vs vehicle-dosed controls
# Procedure: In vivo Inhibition of Testosterone Production
# Male rats aged 8 to 10 weeks old were dosed orally with compounds at 10 or 30 mg/kg. Blood samples were drawn at 0.5, 3, 8, and 24 hours and were processed to plasma samples. Samples were analyzed for compound levels by LC-MS/MS method and for testosterone levels with an ELISA performed as per manufacturer's protocol (Parameter Testosterone Assay, Cat. No. KGE010, R&D systems; http://www.mdsystems.com/pdf/KGE010.pdf). The serum testosterone level was calculated from standards using GraphPad® Prism software and % inhibition at a given time was calculated by comparing the testosterone level in vehicle control animals at the same time of day.
# [2] = 30 mg/kg orally twice a day for 14 days
# [3] = 3-8 hours after a 30 mg/kg oral dose
# [4] = 30 mg/kg orally once a day for 14 days
Structure (SMILES),IC50 (human CYP17) [nM],"reduction of prostate weight [1, 2]",further results
"Cn1cc(-c2ccc(C(C)(O)c3ccncc3)s2)ccc1=O (stereo not drawn) [Example 15, 5-(5-(1-Hydroxy-1-(pyridin-4-yl)ethyl)thiophen-2-yl)-1-methyl-pyridin-2(1H)-one]",201 to 10000,,
"CC(O)(c1ccncc1)c1nc(-c2ccc(F)cc2)no1 (stereo not drawn) [Example 34, 1-(3-(4-Fluorophenyl)-1,2,4-oxadiazol-5-yl)-1-(pyridin-4-yl)ethanol]",,about 50%,
"Cn1cc(-c2ccc(C(C)(O)c3ccncc3)s2)ccc1=O (single isomer, unassigned; (-)) [Example 17, (−)-5-(5-(1-hydroxy-1-(pyridin-4-yl)ethyl)thiophen-2-yl)-1-methylpyridin-2(1H)-one]",50 to 200,about 50%,decrease of serum testosterone levels (serum testosterone level; [3]): 30-60%
"CC(O)(c1ccncc1)c1ncc(-c2ccc(F)cc2)s1 (stereo not drawn) [Example 14, 1-(5-(4-Fluorophenyl)thiazol-2-yl)-1-(pyridin-4-yl)ethanol]",,,decrease of serum testosterone levels (serum testosterone level; [3]): 60-80%
"CC(O)(c1ccncc1)c1cnc(-c2ccc(F)cc2)s1 (single isomer, unassigned) [Example 9, 1-(2-(4-fluorophenyl)thiazol-5-yl)-1-(pyridin-4-yl)ethanol]",50 to 200,,
"CC(O)(c1ccncc1)c1cnc(-c2ccc(F)cc2)s1 (racemic) [Example 7, 1-(2-(4-Fluorophenyl)thiazol-5-yl)-1-(pyridin-4-yl)ethanol]",50 to 200,,"reduction of prostate weight [1, 4]: about 50%; reduction of seminal vesicle weight [1, 4]: about 60%; decrease of serum testosterone levels (serum testosterone level; 3-8 hours after a 10 mg/kg oral dose): 70-85%"
"CC(O)(c1ccncc1)c1cnc(-c2ccc(F)cc2)s1 (single isomer, unassigned) [Example 8, 1-(2-(4-fluorophenyl)thiazol-5-yl)-1-(pyridin-4-yl)ethanol]",201 to 10000,,
"CC(O)(c1ccncc1)c1nc(-c2ccc(F)cc2)no1 (single isomer, unassigned; (+)) [Example 36, (+)-1-(3-(4-fluoro-phenyl)-1,2,4-oxadiazol-5-yl)-1-(pyridin-4-yl)ethanol]",< 50,about 50%,
"COc1ccc(-c2ccc(C(C)(O)c3ccncc3)nc2)cc1 (racemic) [Example 1, 1-(5-(4-Methoxyphenyl)pyridin-2-yl)-1-(pyridin-4-yl)ethanol]",201 to 10000,,

# — patent US8809372B2, “Pyridine derivatives” (Endo Pharmaceuticals, Inc., priority 2011, dated 2014)
